The record followed here is patent US6887669B1, “Reagents for assays for ligands” (Dade Behring Marburg GmbH, priority 1996, dated 2005).

The test system of test [1] is MPA bound to plasma proteins in normal human plasma. As to the kind of experiment: MPA rates in plasma spikes in the presence of co-administered drugs and salicylate, with or without o-anisic acid, Example 4. Conditions: o-anisic acid 12.5 mM in Reagent A. The procedure: In a separate study, the ability of o-anisic acid to eliminate the effect of salicylate on rates of MPA plasma spikes was compared. Two sets of antibody reagents (Reagent A) were prepared to the basic formulation described in Example 2 above. In one reagent, no releasing agent was added; in another reagent, o-anisic acid was added at 12.5 mM. A common Reagent B was prepared as described in Example 2. Rates for four levels of MPA spikes into plasma and a plasma control were measured with each reagent set. […] Salicylate was present at 659 μg/mL. Rates were determined as described in Example 2 above with the exception of the absorbance read window, which was extended to cycle 20 where the assay was ended. Rates were determined using the 10 consecutive absorbance readings of cycles 11 through 20.

The subject of test [2] is MPA bound to plasma proteins in normal human plasma pool (NHP). As to the kind of experiment: EMIT-type enzyme immunoassay for MPA with o-anisic acid in Reagent A: quantitation of MPA spike in NHP versus protein-free PBS. Conditions: average of two spikes, formulation with o-anisic acid, pooled sd 0.4 μg/mL. As for the experimental part:
Reagent A was prepared by first making an anisic acid solution. Anisic acid was dissolved in 1 N NaOH in an amount equal to 25 mL per 1.52 grams of anisic acid. In a separate container was weighed 70% of the final weight of deionized water, to which was added components 1 through 5 inclusive and also component 6 using the prepared solution of Pluronic®25R2 at 10 mL thereof per 1017.9 g (or 1.0 liter) of final solution. This solution was stirred and the anisic acid solution was added. If necessary, the pH of the preparation was adjusted within the range of 5.50 to 5.70 with 6 N NaOH. Next, components 8 and 9 were added and the solution was stirred. If necessary, the pH was adjusted to the above range. […]
For Reagent B deionized water was weighed in an amount equal to 80% of the final weight. […] The conjugate, component 19, was added to achieve a rate of 300±10 mA/min; rate is defined as the change in absorbance at 340 nm per minute of reaction time and is usually expressed as mA/min.
Rates were determined on a Cobas Mira Plus® instrument (Roche Diagnostics Systems, Inc., Branchburg, N.J.). […] During the assay, absorbance readings at 340 nm were made at the end of every cycle. A best linear fit was then made using only the 12 consecutive absorbance readings of cycles 14 through 25 versus time in minutes. […]

Setting [3] is: plasma with NI drugs + salicylate 659 μg/mL.
Where [4] appears, read: plasma with non-interfering co-administered drugs.

Regarding `COc1ccccc1C(=O)O` [o-AA, o-methoxybenzoic acid], the “effect of o-anisic acid in the antibody reagent on salicylate interference” value in test [1] was “eliminated this potential problem”. Further, in test [1] (plasma + methanol control), the “Rate, MPA + MeOH, 0 μg/mL MPA” value was 161; the “Rate, MPA + MeOH, 0.5 μg/mL MPA” value is recorded as 171; the “Rate, MPA + MeOH, 2.5 μg/mL MPA” value turned out to be 210; the “Rate, MPA + MeOH, 5 μg/mL MPA” value came to 234. Moreover, the “Rate, MPA + MeOH, 15 μg/mL MPA” value in test [1] (plasma + methanol control) was found to be 264. In addition, in test [1] (setting [3]), the “Rate, MPA + NI + Salicylate, 0 μg/mL MPA” value was 161; the “Rate, MPA + NI + Salicylate, 0.5 μg/mL MPA” value was 171; the “Rate, MPA + NI + Salicylate, 2.5 μg/mL MPA” value was found to be 211; the “Rate, MPA + NI + Salicylate, 5 μg/mL MPA” value was found to be 234. Moreover, the “Rate, MPA + NI + Salicylate, 15 μg/mL MPA” value in test [1] (setting [3]) stood at 263. Moreover, in test [1] (setting [4]), the “Rate, MPA + NI, 0 μg/mL MPA” value is 161; the “Rate, MPA + NI, 0.5 μg/mL MPA” value amounted to 173; the “Rate, MPA + NI, 2.5 μg/mL MPA” value came out at 211; the “Rate, MPA + NI, 5 μg/mL MPA” value is 234. Moreover, in test [1] (setting [4]), the “Rate, MPA + NI, 15 μg/mL MPA” value is listed as 263. Further, the “quantitation of a 10 μg/mL MPA spike in normal human plasma pool (NHP)” value in test [2] was found to be 10.2 µg/mL. Besides, the “quantitation of a 10 μg/mL MPA spike in PBS” value in test [2] (protein-free PBS) came to 10.4 µg/mL.
